Measurements published in US12396459B2, “Synergistically effective herbicide composition comprising pyridate and at least one defined 4-HPPD inhibitor” (BELCHIM CROP PROTECTION NV, priority 2018, dated 2025).

How the values were obtained:
Assay type in all cases: in vivo
[1] = test system: Veronica persica; assay: Field trial post-emergence in maize: VERPE; details: for herbicidal effect (h.e.): g a.c./ha: PYR 300, MES 100, PYR + MES 300 + 90
Protocol: (§1) Herbicidal activity of herbicide compositions according to the first aspect of the present invention with regard to different types of unwanted vegetation was determined during trials performed on test fields (field trials). Individual compositions comprising pyridate and individual compositions comprising a defined 4-HPPD inhibitor are compared with a herbicide composition according to the invention comprising both pyridate and a defined 4-HPPD inhibitor. The expected activity of the combination of the active compounds pyridate and a defined 4-HPPD inhibitor is calculated according to above mentioned calculation method by Colby, in order to evaluate a synergistic effect between pyridate and a defined 4-HPPD inhibitor.
(§2) Herbicidal activity was determined by applying herbicide compositions on emerged unwanted vegetation on fields where maize was cultivated. Pyridate and a defined 4-HPPD inhibitor were applied as a tank mixture by mixing these active compounds prior to use in a spray tank. The corresponding mixture was in the form of a spray liquor. Besides, spray liquors of individual compositions comprising pyridate and of individual compositions comprising a defined 4-HPPD inhibitor were used. Test plants of unwanted vegetation with a growth stage corresponding to BBCH 10-18 (according to the extended BBCH-scale) were sprayed with the active compound preparations such that particular desired amounts of active compounds are applied per unit area. Spray liquor was diluted with water to arrive at an application volume of 50 to 450 L/ha. At a specified number of days after application (DAA), the degree of damage to the unwanted vegetation is rated in % of plants of unwanted vegetation that were killed, which was assessed by visually controlling the plants.

[2] = test system: Setaria verticillata; assay: Field trial post-emergence in maize: SETVE
Protocol: as §1, §2
(§3) Example 1 concerns a herbicide composition comprising a combination of pyridate and mesotrione, which was applied post-emergence on unwanted vegetation on a field where maize was cultivated, according to the test conditions mentioned above.

[3] = test system: Mercurialis annua; assay: Field trial post-emergence in maize: MERAN
Protocol: as §1, §2, §3

[4] = test system: Stachys arvensis; assay: Field trial post-emergence in maize: STAAR; details: 7-14 DAA; # = 1; g a.c./ha: PYR 300, MES 100, PYR + MES 300 + 90
Protocol: as §1
(§4) Herbicidal activity was determined by applying herbicide compositions on emerged unwanted vegetation on fields where maize was cultivated. Pyridate and a defined 4-HPPD inhibitor were applied as a tank mixture by mixing these active compounds prior to use in a spray tank. The corresponding mixture was in the form of a spray liquor. […] At a specified number of days after application (DAA), the degree of damage to the unwanted vegetation is rated in % of plants of unwanted vegetation that were killed, which was assessed by visually controlling the plants.

[5] = test system: Convolvulus arvensis; assay: Field trial post-emergence in maize: CONAR
Protocol: as §1, §2, §3

[6] = test system: Capsella bursa-pastoris; assay: Field trial post-emergence in maize: CAPBP
Protocol: as §1, §2

[7] = test system: Persicaria maculosa; assay: Field trial post-emergence in maize: POLPE; details: for herbicidal effect (h.e.): g a.c./ha: PYR 300, MES 100, PYR + MES 300 + 90
Protocol: as §1, §2

[8] = test system: Viola arvensis; assay: Field trial post-emergence in maize: VIOAR
Protocol: as §1, §2, §3

[9] = test system: Papaver rhoeas; assay: Field trial post-emergence in maize: PAPRH; details: # = 1, g a.c./ha: PYR 300, MES 100, PYR + MES 300 + 90
Protocol: as §1, §2

[10] = test system: Sorghum halepense; assay: Field trial post-emergence in maize: SORHA; details: 7-14 DAA; # = 1; g a.c./ha: PYR 300, MES 100, PYR + MES 300 + 90
Protocol: as §1, §4

[11] = test system: Brassica rapa Canola cultivars; assay: Field trial post-emergence in maize: BRSRC; details: 13-14 DAA, # = 1
Protocol: as §1, §2

[12] = test system: Thlaspi arvense; assay: Field trial post-emergence in maize: THLAR; details: # = 1, g a.c./ha: PYR 300, MES 100, PYR + MES 300 + 90
Protocol: as §1, §2

[13] = test system: Portulaca oleracea; assay: Field trial post-emergence in maize: POROL; details: # = 1, g a.c./ha: PYR 300, MES 100, PYR + MES 300 + 90
Protocol: as §1, §2

[14] = test system: Hibiscus ternatus; assay: Field trial post-emergence in maize: HIBTR; details: 7-14 DAA; # = 2; g a.c./ha: PYR 300, MES 100, PYR + MES 300 + 90
Protocol: as §1, §4

[15] = test system: Digitaria sanguinalis; assay: Examples 6-8 herbicidal effect: DIGSA; details: 7 DAA
[16] = test system: Anagallis arvensis; assay: Field trial post-emergence in maize: ANGAR; details: 7-14 DAA; # = 2; g a.c./ha: PYR 300, MES 100, PYR + MES 300 + 90
Protocol: as §1, §4

[17] = test system: Echinochloa crus-galli; assay: Field trial post-emergence in maize: ECHCG; details: for herbicidal effect (h.e.): g a.c./ha: PYR 300, MES 100, PYR + MES 300 + 90
Protocol: as §1, §2

[18] = test system: Kickxia elatine; assay: Field trial post-emergence in maize: KICEL
Protocol: as §1, §2, §3

In the case of `CCCCCCCCSC(=O)Oc1cc(Cl)nnc1-c1ccccc1` [PYR, (6-chloro-3-phenylpyridazin-4-yl) octylsulfanylformate], the “herbicidal effect (h.e.)” value ([1]; 7-14 DAA, # = 4) is reported as 58%, the “herbicidal effect (h.e.)” value ([1]; 31-48 DAA, # = 5) is reported as 44% and the PYR h.e. ([1]; VERPE 14-20 DAA 300 g a.c./ha) is reported as 0%. The PYR h.e. ([1]; VERPE 14-20 DAA 600 g a.c./ha) was 20%, the PYR h.e. ([1]; VERPE 14-20 DAA 900 g a.c./ha) was 40% and the PYR h.e. ([1]; VERPE 24-31 DAA 300 g a.c./ha) was 10%. For the same molecule, the PYR h.e. ([1]; VERPE 24-31 DAA 600 g a.c./ha) was 0%, the PYR h.e. ([1]; VERPE 24-31 DAA 900 g a.c./ha) was 0% and the PYR h.e. ([2]; SETVE 14-20 DAA 300 g a.c./ha) was 29%. It also gave a PYR h.e. ([2]; SETVE 14-20 DAA 600 g a.c./ha) of 47%, a PYR h.e. ([2]; SETVE 14-20 DAA 900 g a.c./ha) of 75% and a PYR h.e. ([2]; SETVE 24-31 DAA 300 g a.c./ha) of 29%. It also gave a PYR h.e. ([2]; SETVE 24-31 DAA 600 g a.c./ha) of 33%, a PYR h.e. ([2]; SETVE 24-31 DAA 900 g a.c./ha) of 60% and a PYR h.e. ([3]; MERAN 14-20 DAA 300 g a.c./ha) of 48%. It also gave a PYR h.e. ([3]; MERAN 14-20 DAA 600 g a.c./ha) of 78%, a PYR h.e. ([3]; MERAN 24-31 DAA 300 g a.c./ha) of 10% and a PYR h.e. ([3]; MERAN 24-31 DAA 600 g a.c./ha) of 33%. For the same molecule, the PYR h.e. ([3]; MERAN 24-31 DAA 900 g a.c./ha) was 80%, the “herbicidal effect (h.e.)” value [4] was 35% and the PYR h.e. ([5]; CONAR 14-20 DAA 300 g a.c./ha) was 35%. It also gave a PYR h.e. ([5]; CONAR 14-20 DAA 600 g a.c./ha) of 40%, a PYR h.e. ([5]; CONAR 14-20 DAA 900 g a.c./ha) of 45% and a PYR h.e. ([5]; CONAR 24-31 DAA 600 g a.c./ha) of 48%. For the same molecule, the PYR h.e. ([5]; CONAR 24-31 DAA 900 g a.c./ha) was 45%, the “herbicidal effect (h.e.)” value ([6]; 7-14 DAA, # = 3, g a.c./ha: PYR 300, MES 100, PYR + MES 300 + 90) was 51% and the PYR h.e. ([6]; CAPBP 14-20 DAA 300 g a.c./ha) was 59%. The PYR h.e. ([6]; CAPBP 14-20 DAA 600 g a.c./ha) was 65%, the PYR h.e. ([6]; CAPBP 14-20 DAA 900 g a.c./ha) was 73% and the PYR h.e. ([6]; CAPBP 24-31 DAA 300 g a.c./ha) was 53%. For the same molecule, the PYR h.e. ([6]; CAPBP 24-31 DAA 600 g a.c./ha) was 61%, the PYR h.e. ([6]; CAPBP 24-31 DAA 900 g a.c./ha) was 73% and the “herbicidal effect (h.e.)” value ([7]; 7-14 DAA, # = 3) was 42%. For the same molecule, the “herbicidal effect (h.e.)” value ([7]; 31-48 DAA, # = 4) was 32%, the PYR h.e. ([7]; POLPE 14-20 DAA 300 g a.c./ha) was 15% and the PYR h.e. ([7]; POLPE 14-20 DAA 600 g a.c./ha) was 23%. It also gave a PYR h.e. ([7]; POLPE 14-20 DAA 900 g a.c./ha) of 28%, a PYR h.e. ([7]; POLPE 24-31 DAA 300 g a.c./ha) of 17% and a PYR h.e. ([7]; POLPE 24-31 DAA 600 g a.c./ha) of 33%. The PYR h.e. ([7]; POLPE 24-31 DAA 900 g a.c./ha) was 32%, the PYR h.e. ([8]; VIOAR 14-20 DAA 300 g a.c./ha) was 31% and the PYR h.e. ([8]; VIOAR 14-20 DAA 600 g a.c./ha) was 34%. For the same molecule, the PYR h.e. ([8]; VIOAR 14-20 DAA 900 g a.c./ha) was 50%, the “herbicidal effect (h.e.)” value ([9]; 18-28 DAA) was 3% and the “herbicidal effect (h.e.)” value ([9]; 31-48 DAA) was 3%. For the same molecule, the “herbicidal effect (h.e.)” value [10] was 58%, the “herbicidal effect (h.e.)” value ([11]; g a.c./ha: PYR 450, MES 144, PYR + MES 450 + 144) was 48% and the “herbicidal effect (h.e.)” value ([11]; g a.c./ha: PYR 450, TOP 12.4, PYR + TOP 450 + 12.4) was 48%. The “herbicidal effect (h.e.)” value ([12]; 7-14 DAA) was 28%, the “herbicidal effect (h.e.)” value ([12]; 18-28 DAA) was 19% and the “herbicidal effect (h.e.)” value ([13]; 7-14 DAA) was 30%. The “herbicidal effect (h.e.)” value ([13]; 18-28 DAA) was 11%, the “herbicidal effect (h.e.)” value [14] was 36% and the “herbicidal effect (h.e.)” value ([15]; g a.c./ha: PYR 10, TEM 22, PYR + TEM 10 + 100) was 0%. For the same molecule, the “herbicidal effect (h.e.)” value ([15]; g a.c./ha: PYR 300, PYR + MES 300 + 80) was 0%, the “herbicidal effect (h.e.)” value ([15]; g a.c./ha: PYR 300, SCT 300, PYR + SCT 300 + 300) was 0% and the “herbicidal effect (h.e.)” value ([15]; g a.c./ha: PYR 300, TEM 100, PYR + TEM 300 + 100) was 5%. The “herbicidal effect (h.e.)” value ([15]; g a.c./ha: PYR 450, SCT 450, PYR + SCT 300 + 450) was 0%, the “herbicidal effect (h.e.)” value ([15]; g a.c./ha: PYR 600, PYR + SCT 600 + 300) was 5% and the “herbicidal effect (h.e.)” value ([15]; g a.c./ha: PYR 900, TEM 44, PYR + TEM 900 + 44) was 0%. The “herbicidal effect (h.e.)” value [16] was 6%, the “herbicidal effect (h.e.)” value ([17]; 7-14 DAA, # = 9) was 20% and the “herbicidal effect (h.e.)” value ([17]; 18-28 DAA, # = 14) was 23%. The “herbicidal effect (h.e.)” value ([17]; 31-48 DAA, # = 13) was 23%, the PYR h.e. ([17]; ECHCG 14-20 DAA 300 g a.c./ha) was 10% and the PYR h.e. ([17]; ECHCG 14-20 DAA 600 g a.c./ha) was 23%. The PYR h.e. ([17]; ECHCG 14-20 DAA 900 g a.c./ha) was 31%, the PYR h.e. ([17]; ECHCG 24-31 DAA 300 g a.c./ha) was 0% and the PYR h.e. ([17]; ECHCG 24-31 DAA 600 g a.c./ha) was 3%. For the same molecule, the PYR h.e. ([17]; ECHCG 24-31 DAA 900 g a.c./ha) was 20%, the PYR h.e. ([18]; KICEL 14-20 DAA 300 g a.c./ha) was 0% and the PYR h.e. ([18]; KICEL 14-20 DAA 600 g a.c./ha) was 0%. It also gave a PYR h.e. ([18]; KICEL 14-20 DAA 900 g a.c./ha) of 0%, a PYR h.e. ([18]; KICEL 24-31 DAA 300 g a.c./ha) of 0% and a PYR h.e. ([18]; KICEL 24-31 DAA 600 g a.c./ha) of 0%. It also gave a PYR h.e. ([18]; KICEL 24-31 DAA 900 g a.c./ha) of 0%.
